Measurements: patent US20110300168A1, “COMPOSITIONS AND METHODS FOR INDUCING AN IMMUNE RESPONSE AGAINST INFLUENZA ANTIGENS” (THE JOHNS HOPKINS UNIVERSITY, priority 2010, published 2011)

Experiments:
Type in all cases: cell-based, human
CD8+ T cells [1] = settings: for control donors in whom the epitope elicited a response: 12 control donors, aAPC assay, ICS; for geriatric donors with CD8+ T cells responding to the epitope: nine geriatric donors aged 65 and above, IFNγ ICS after 3 weeks of aAPC stimulation
CD8+ T cells [2] = settings: control donors aged 21-42, wk 0 directly ex vivo, peptide pulsed T2 cells 1:1; positive if SFC greater than 5 per 100000 CD8+ T cells, p<0.05
CD8+ T cells [3] = test system: CD8+ T cells

| Sequence | control donors in whom the epitope elicited a response (CD8+ T cells [1]) | geriatric donors with CD8+ T cells responding to the epitope (CD8+ T cells [1]) | number of donors who responded by IFNγ ELISpot (CD8+ T cells [2]) | CD8+ T cells specific by IFNγ expression (ICS) (CD8+ T cells [1]; Donor C1, after 3 weekly aAPC stimulations, restimulated with peptide pulsed T2 cells 1:1) | CD8+ T cells specific for the epitope by A2-Ig dimer staining (CD8+ T cells [3]) |
| --- | --- | --- | --- | --- | --- |
| IMDKNIILKA (listed as Influenza virus) [NS1123-132, subdominant influenza peptide, pool 2] | majority of the donors | Donors E2, E3, E4, and E8 responded | One |  |  |
| SLCPIRGWAI (listed as Influenza virus) [NA75-84, subdominant influenza peptide, pool 2] |  |  | 2 |  |  |
| NMLSTVLGV (listed as Influenza virus) [PB1413-421, subdominant influenza peptide, pool 1] | majority of the donors | none responded | Four out of the six | 37% | 75% |
| SLENFRAYV (listed as Influenza virus) [PA225-233, subdominant influenza peptide, pool 1] |  |  | One |  |  |
| CVNGSCFTV (listed as Influenza virus) [NA231-239, subdominant influenza peptide, pool 1] |  |  | no donor responded |  |  |
